Where “and” joins values, the source holds several entries; their conditions need not be identical. Equal values may be shown once. Entries after “also recorded” stand apart in the source; their conditions may differ.
Tested on: gastric pH
Assay: Example IX: gastric pH of nasogastric aspirate (pH paper) in mechanically ventilated critically ill patients
Assay type: in vivo, human
Settings: 40 mg omeprazole solution per ng tube; mean ± standard deviation where given
Experimental: Each dose was administered through the nasogastric tube.
Gastric pH was measured immediately after aspirating gastric contents through the nasogastric tube. pH paper (pHydrion improved pH papers, Microessential Laboratory, Brooklyn, N.Y.) was used to measure gastric aspirate pH. The pH range of the test strips was 1 to 11, in increments of one pH unit. Gastric pH was measured before the initiation of omeprazole solution therapy, immediately before each dose, and every four hours between doses.
In the case of `COc1ccc2[nH]c([S+]([O-])Cc3ncc(C)c(OC)c3C)nc2c1` (centres unmarked) [Omeprazole], the “gastric pH four hours after omeprazole was first administered (mean)” value is reported as 7.1 and 7.1±1.1.

Same assay, conditions: mean ± standard deviation where given
For `COc1ccc2[nH]c([S+]([O-])Cc3ncc(C)c(OC)c3C)nc2c1` (centres unmarked) [Omeprazole], the “lowest gastric pH after starting omeprazole (mean)” value was 5.6 and 5.6±1.3 and the “mean gastric pH after starting omeprazole (mean)” value was 6.8 and 6.8±0.6.

Tested on: not listed separately
Assay: Calculation of Essential pH and Stability Range Factor (SRF)
Assay type: physicochemical
Settings: calculated from pKa; read-out: Stability Range Factor (SRF), pH range (pKa + 0.7) to 10.9
Experimental: A proton pump inhibitor dose within its calculated pHE range is designed to ensure sufficient proton pump inhibitor protection from acid degradation such that delivery to and action upon proton pumps occur. In one desirable embodiment, the pHE is the sum of the pKa of a given proton pump inhibitor plus about 0.7.
SRF is calculated based on the desirable shelf-life (or a dwell time), the environmental pH and the amount of acid expected to be encountered, along with a knowledge of the time of exposure expected after the drug is administered and before the drug reaches the blood (i.e., the dwell time).
The upper limit of the SRF is a function of the tolerability of the gastrointestinal mucosa to alkaline substances, which is determined by the Formulation pH and the concentration of alkaline material presented. […] It is acknowledged that the amount of buffer is an important aspect of the tissue destructive potential of an alkaline substance.
Examples of pHE calculations with SRF for specific proton pump inhibiting agents are as follows:
pHE of proton pump inhibitor=pKa of proton pump inhibitor+0.7.
`COc1ccc2[nH]c([S+]([O-])Cc3ncc(C)c(OC)c3C)nc2c1` (centres unmarked) [Omeprazole] showed a Stability Range Factor (pH range) of 4.6 to 10.9.
In the case of `Cc1c(OCC(F)(F)F)ccnc1C[S+]([O-])c1nc2ccccc2[nH]1` (centres unmarked) [Lansoprazole, lansoprazole], the Stability Range Factor (pH range) is reported as 4.8 to 10.9.
In the case of `COCCCOc1ccnc(C[S+]([O-])c2nc3ccccc3[nH]2)c1C` (centres unmarked) [rabeprazole], the Stability Range Factor (pH range) is reported as 5.6 to 10.9.
In the case of `COc1ccnc(C[S+]([O-])c2nc3ccc(OC(F)F)cc3[nH]2)c1OC` (centres unmarked) [pantoprazole], the Stability Range Factor (pH range) is reported as 3.7 to 10.9.

Tested on: not given
Assay: not given
Settings: amino acid; cited from earlier work
In the case of `C[C@H](N)C(=O)O` [Alanine], the pH is listed as 6.
In the case of `N[C@@H](Cc1ccccc1)C(=O)O` [Phenylalanine], the pH is given as 5.48.
For `N[C@@H](Cc1c[nH]c2ccccc12)C(=O)O` [Tryptophan], the pH is given as 5.89.
In the case of `N[C@@H](Cc1c[nH]cn1)C(=O)O` [Histidine], the pH is given as 7.47.
In the case of `CC[C@H](C)[C@H](N)C(=O)O` [Isoleucine], the pH is listed as 5.94.
For `N[C@@H](CC(=O)O)C(=O)O` [Aspartic Acid], the pH is listed as 2.77.
For `N[C@@H](CS)C(=O)O` [Cysteine], the pH is listed as 5.02.
For `NCCCC[C@H](N)C(=O)O` [Lysine], the pH is listed as 9.59.
In the case of `NCC(=O)O` [Glycine], the pH is listed as 5.97.
For `N=C(N)NCCC[C@H](N)C(=O)O` [Arginine], the pH is given as 11.15.
For `N[C@@H](CO)C(=O)O` [Serine], the pH is listed as 5.68.
In the case of `N[C@@H](Cc1ccc(O)cc1)C(=O)O` [Tyrosine], the pH is given as 5.66.
In the case of `NC(=O)C[C@H](N)C(=O)O` [Asparagine], the pH is listed as 5.41.
For `N[C@@H](CCC(=O)O)C(=O)O` [Glutamic Acid], the pH is given as 3.22.
For `CSCC[C@H](N)C(=O)O` [Methionine], the pH is given as 5.74.
For `O=C(O)[C@@H]1CCCN1` [Proline], the pH is listed as 6.30.
In the case of `CC(C)[C@H](N)C(=O)O` [Valine], the pH is given as 5.96.
For `C[C@@H](O)[C@H](N)C(=O)O` [Threonine], the pH is listed as 5.64.

Same assay, conditions: at 25° C.; cited from earlier work
For `C[C@H](N)C(=O)O` [Alanine], the Solubility is listed as 16.65 g/100 g H2O.
For `N[C@@H](Cc1ccccc1)C(=O)O` [Phenylalanine], the Solubility is given as 2.965 g/100 g H2O.
For `N[C@@H](Cc1c[nH]c2ccccc12)C(=O)O` [Tryptophan], the Solubility is listed as 1.136 g/100 g H2O.
For `N[C@@H](Cc1c[nH]cn1)C(=O)O` [Histidine], the Solubility is given as 4.19 g/100 g H2O.
In the case of `CC[C@H](C)[C@H](N)C(=O)O` [Isoleucine], the Solubility is given as 4.117 g/100 g H2O.
For `NC(=O)CC[C@H](N)C(=O)O` [Glutamine], the Solubility is given as 2.5 g/100 g H2O.
In the case of `N[C@@H](CS)C(=O)O` [Cysteine], the Solubility is listed as “Very”.
For `NCCCC[C@H](N)C(=O)O` [Lysine], the Solubility is given as “Very”.
For `CC(C)C[C@H](N)C(=O)O` [Leucine], the Solubility is given as 2.426 g/100 g H2O.
In the case of `NC(=O)C[C@H](N)C(=O)O` [Asparagine], the Solubility is given as 3.53 g/100 g H2O.
For `CSCC[C@H](N)C(=O)O` [Methionine], the Solubility is listed as 3.381 g/100 g H2O.
In the case of `CC(C)[C@H](N)C(=O)O` [Valine], the Solubility is listed as 8.85 g/100 g H2O.

Tested on: not given
Assay: not given
Settings: acidic stomach / gastric environment (pH of 1.2 where stated), upon complete dissolution; cited from earlier work
For `COc1ccnc(C[S+]([O-])c2nc3ccc(OC(F)F)cc3[nH]2)c1OC` (centres unmarked) [Pantoprazole sodium], the “time in which drug could undergo 50% degradation” value is given as “less than 5 minutes”.
In the case of `COCCCOc1ccnc(C[S+]([O-])c2nc3ccccc3[nH]2)c1C` (centres unmarked) [Rabeprazole sodium], the “time in which drug could undergo 50% degradation” value is given as “less than 1.5 minutes”.
In the case of `COc1ccc2[nH]c([S+]([O-])Cc3ncc(C)c(OC)c3C)nc2c1` (centres unmarked) [Omeprazole], the “time in which drug could undergo 50% degradation” value is given as “less than 3 minutes”.
For `Cc1c(OCC(F)(F)F)ccnc1C[S+]([O-])c1nc2ccccc2[nH]1` (centres unmarked) [Lansoprazole, lansoprazole], the “time in which drug could undergo 50% degradation” value is given as 2 min.

Tested on: not given
Assay: not given
Settings: cited from earlier work
For `COc1ccnc(C[S+]([O-])c2nc3ccc(OC(F)F)cc3[nH]2)c1OC` (centres unmarked) [Pantoprazole sodium], the Solubility in water is listed as “very soluble” and the pKa is listed as 3.
For `COc1ccc2nc([S@@+]([O-])Cc3ncc(C)c(OC)c3C)[nH]c2c1` [esomeprazole], the pKa is listed as “Essential pH (esomeprazole pKa = 3.9 + 0.7 ≧ 4.6)”.
In the case of `COCCCOc1ccnc(C[S+]([O-])c2nc3ccccc3[nH]2)c1C` (centres unmarked) [Rabeprazole sodium], the Solubility in water is listed as “very soluble in water” and the pKa is listed as 4.9.
For `COc1ccc2[nH]c([S+]([O-])Cc3ncc(C)c(OC)c3C)nc2c1` (centres unmarked) [Omeprazole], the Solubility in water is given as “slightly soluble” and the pKa is given as “Omeprazole has a pKa of 3.9; thus, the Essential pH = 3.9 + 0.7 ≧ 4.6”.
For `Cc1c(OCC(F)(F)F)ccnc1C[S+]([O-])c1nc2ccccc2[nH]1` (centres unmarked) [Lansoprazole, lansoprazole], the Solubility in water is listed as “very slightly” and the pKa is listed as “Lansoprazole has a pKa of 4.1; thus, the Essential pH = 4.1 + 0.7 ≧ 4.8”.

Same assay, conditions: listed as Lansoprazole base; cited from earlier work
For `Cc1c(OCC(F)(F)F)ccnc1C[S+]([O-])c1nc2ccccc2[nH]1` (centres unmarked) [Lansoprazole, lansoprazole], the Solubility in water is listed as “very slightly soluble in water”.

Same assay, conditions: listed as Omeprazole base; cited from earlier work
In the case of `COc1ccc2[nH]c([S+]([O-])Cc3ncc(C)c(OC)c3C)nc2c1` (centres unmarked) [Omeprazole], the Solubility in water is listed as “only slightly soluble in water”.

Same assay, conditions: listed as pantoprazole sodium; cited from earlier work
For `COc1ccnc(C[S+]([O-])c2nc3ccc(OC(F)F)cc3[nH]2)c1OC` (centres unmarked) [Pantoprazole sodium], the Solubility in water is given as “very soluble in water”.

Tested on: not listed separately
Assay: clinical
Settings: human, plasma, 40 mg
`COc1ccc2[nH]c([S+]([O-])Cc3ncc(C)c(OC)c3C)nc2c1` (centres unmarked) [Omeprazole] gave a concentration at 3 min of 27.5 ng/mL, a concentration at 5 min of 73.5 ng/mL and a concentration at 8 h of 232 ng/mL.

Same assay, conditions: human, plasma, oral, 40 mg
Molecule `COc1ccc2[nH]c([S+]([O-])Cc3ncc(C)c(OC)c3C)nc2c1` (centres unmarked) [Omeprazole] has a concentration at 75 min of 610 ng/mL.

Tested on: not listed separately
Assay: clinical
Settings: human, plasma, oral, 40 mg
Work on `COc1ccc2[nH]c([S+]([O-])Cc3ncc(C)c(OC)c3C)nc2c1` (centres unmarked) [Omeprazole] yielded a concentration at 0 h of 0 ng/mL.

Tested on: not given
Assay: not given
Settings: pH is altered by concentration and temperature; cited from earlier work
For `O=C([O-])[C@H](O)[C@@H](O)[C@H](O)[C@H](O)CO.[Na+]` [Sodium gluconate], the pH is listed as 6-8.
In the case of Calcium gluconate, the pH is listed as 7.4.
For `O=P([O-])([O-])O.[Na+].[Na+]` [Dibasic sodium phosphate], the pH is listed as 8.6-9.3.
In the case of Calcium glycerophosphate, the pH is given as 7.
In the case of Magnesium gluconate, the pH is listed as 7.3.
In the case of `O=C([O-])CC(O)(CC(=O)[O-])C(=O)[O-].O=C([O-])CC(O)(CC(=O)[O-])C(=O)[O-].[Ca+2].[Ca+2].[Ca+2]` [Calcium citrate], the pH is given as 6.8.
In the case of `[O]=[Mg]` [Magnesium oxide], the pH is given as 9.5-10.5.
In the case of `O=P(O)(O)OP(=O)(O)OP(=O)(O)O` [Sodium tripolyphosphate], the pH is listed as 9.7-10.
For `O=C([O-])CC(O)(CC(=O)[O-])C(=O)[O-].[Na+].[Na+].[Na+]` [Sodium citrate], the pH is given as 5.
For `O=P([O-])([O-])[O-].[Na+].[Na+].[Na+]` [Sodium phosphate (tribasic)], the pH is given as 10.7-12.1.
For `CC(O)C(=O)[O-].CC(O)C(=O)[O-].[Ca+2]` (centres unmarked) [Calcium lactate], the pH is given as 7.
For `CC(O)C(=O)[O-].[Na+]` (centres unmarked) [Sodium lactate], the pH is given as 7.
In the case of `CC(O)C(=O)[O-].CC(O)C(=O)[O-].[Mg+2]` (centres unmarked) [Magnesium lactate], the pH is given as 5.5-7.5.

Same assay, conditions: solubility is altered by temperature; cited from earlier work
For `[O]=[Mg]` [Magnesium oxide], the Solubility is listed as 0.62 mg/100 mL.
In the case of `O=P(O)(O)OP(=O)(O)OP(=O)(O)O` [Sodium tripolyphosphate], the Solubility is listed as 6 gm/100 mL.

Tested on: gastric pH
Assay: Example XIV: continuous gastric pH monitoring (Zinetics probe) after omeprazole suspension
Settings: from 1 h after administration for the entire 24-h study period; both routes
In the case of `COc1ccc2[nH]c([S+]([O-])Cc3ncc(C)c(OC)c3C)nc2c1` (centres unmarked) [Omeprazole], the “mean intragastric pH values” is reported as > 4.

Tested on: not listed separately
Assay: Example XV: omeprazole concentration vs time after single dose SOS in patients at risk for SRMD (HPLC)
Settings: single dose SOS 40 mg
In the case of `COc1ccc2[nH]c([S+]([O-])Cc3ncc(C)c(OC)c3C)nc2c1` (centres unmarked) [Omeprazole], the “absorption as measured by Area Under the Curve (AUC) compared to enteric-coated form” value is reported as “did not appear to be significantly decreased”.

Tested on: stress-related mucosal bleeding
Assay: Example IX: clinically significant stress-related mucosal bleeding, mortality, pneumonia and adverse events in mechanically ventilated critically ill patients
Settings: high-risk population
With `COc1ccc2[nH]c([S+]([O-])Cc3ncc(C)c(OC)c3C)nc2c1` (centres unmarked) [Omeprazole] the “adverse event or drug interaction attributable to omeprazole” value was “No patient; also recorded: No adverse events or drug interaction”.

Same assay, conditions: nine of 75 patients
For `COc1ccc2[nH]c([S+]([O-])Cc3ncc(C)c(OC)c3C)nc2c1` (centres unmarked) [Omeprazole], the incidence of pneumonia was “twelve”.
